{"source": "patent US20240325398A1", "about": "“COMBINATION THERAPIES” (Infinity Pharmaceuticals, Inc., priority 2014, published 2024)", "key": {"RPMI-8226": {"tested_on": "RPMI-8226", "assay": "Combination study, ATPLite 72 h, dose matrix (Synergy Score, CI50)", "settings": "combination with Compound 1", "protocol": "(§1) Cells are thawed from a liquid nitrogen preserved state. Once cells have been expanded and divide at their expected doubling times, screening begins. Cells are seeded in growth media in either black 1536-well or 384-well tissue culture treated plates. Cells are then equilibrated in assay plates via centrifugation and placed in incubators attached to the Dosing Modules at 37° C. for 24 hours before treatment. […] These Tzero (To) plates are read using ultra-sensitive luminescence on Envision plate readers (Perkin Elmer). Treated assay plates are incubated with compound for 72 hours. After 72 hours, plates are developed for endpoint analysis using ATPLite. All data points are collected via automated processes, quality controlled and analyzed using Zalicus software.\n(§2) where T is treated cell count and V is untreated (vehicle) cell count (at 72 hours). I ranges from 0% (when T=V) to 100% (when T=0). […] The measure of effect in the experiment can be the inhibition of cellular response relative to the untreated level (vehicle alone). […] The inhibition ranges from 0% at the untreated level to 100% when T=0. Inhibition levels are negative for agents that actually increase levels. Other effect measures, such as an activity ratio r=T/V may be more appropriate for some assays. When activity ratios (e.g, fold increase over stimulated control) are being used, the effect can be measured using an induction 1=ln(T/V). With this definition, all effect expressions are the same as for inhibition.\n(§3) Growth Inhibition (GI) is used as a measure of cell viability. […] A GI reading of 100% represents complete growth inhibition—T72 compound-treated and T0 vehicle signals are matched. […] A GI reading of 200% represents complete death of all cells in the culture well. Compounds reaching an activity plateau of GI 200% are considered cytotoxic. GI is calculated by applying the following test and equation:\n(§4) Combination analysis data were collected in a 6×6 dose matrix. Synergy is calculated by comparing a combination's response to those of its single compound, against the drug-with-itself dose-additive reference model. Deviations from dose additivity may be assessed visually on an isobologram or numerically with a Combination Index (CI). […] Additive effect is CI=1.0. […] Antagonistic effect is CI>1.0.\n(§5) To measure combination effects in excess of Loewe additivity, a scalar measure to characterize the strength of synergistic interaction termed the Synergy Score is devised. The Synergy Score is calculated as:\n(§6) The fractional inhibition for each component agent and combination point in the matrix is calculated relative to the median of all vehicle-treated control wells. The Synergy Score equation integrates the experimentally-observed activity volume at each point in the matrix in excess of a model surface numerically derived from the activity of the component agents using the Loewe model for additivity. Additional terms in the Synergy Score equation (above) are used to normalize for various dilution factors used for individual agents and to allow for comparison of synergy scores across an entire experiment. The inclusion of positive inhibition gating or an Idata multiplier removes noise near the zero effect level, and biases results for synergistic interactions at that occur at high activity levels.\n(§7) Loewe Volume (Loewe Vol) is used to assess the overall magnitude of the combination interaction in excess of the Loewe additivity model. Loewe Volume is particularly useful when distinguishing synergistic increases in a phenotypic activity (positive Loewe Volume) versus synergistic antagonisms (negative Loewe Volume). […] This model defines additivity as a non-synergistic combination interaction where the combination dose matrix surface should be indistinguishable from either drug crossed with itself."}, "RL": {"tested_on": "RL", "assay": "Combination study, ATPLite 72 h, dose matrix (Synergy Score, CI50)", "settings": "combination with Compound 1, 72 h"}, "SU-DHL-10-epst": {"tested_on": "SU-DHL-10-epst", "assay": "Combination study, ATPLite 72 h, dose matrix (Synergy Score, CI50)", "settings": "combination with Compound 1, 72 h"}, "HH": {"tested_on": "HH", "assay": "Combination study, ATPLite 72 h, dose matrix (Synergy Score, CI50)", "type": "cell-based", "settings": "combination with Compound 1", "procedure": "The method is described as follows.\nAdditive effect is CI=1.0. […] Antagonistic effect is CI>1.0.\nThe Synergy Score is calculated as: […]"}, "Jeko-1": {"tested_on": "Jeko-1", "assay": "Combination study, ATPLite 72 h, dose matrix (Synergy Score, CI50)", "settings": "combination with Compound 1"}, "U-2932": {"tested_on": "U-2932", "assay": "Combination study, ATPLite 72 h, dose matrix (Synergy Score, CI50)", "settings": "combination with Compound 1, 72 h"}, "Farage": {"tested_on": "Farage", "assay": "Combination study, ATPLite 72 h, dose matrix (Synergy Score, CI50)", "settings": "combination with Compound 1; Farage; 72 h"}, "SU-DHL-4-epst": {"tested_on": "SU-DHL-4-epst", "assay": "Combination study, ATPLite 72 h, dose matrix (Synergy Score, CI50)", "settings": "combination with Compound 1, 72 h"}, "KARPAS-422": {"tested_on": "KARPAS-422", "assay": "Combination study, ATPLite 72 h, dose matrix (Synergy Score, CI50)", "settings": "combination with Compound 1, 72 h", "protocol": "as §1, §2, §3, §4, §5, §6, §7"}, "Mino": {"tested_on": "Mino", "assay": "Combination study, ATPLite 72 h, dose matrix (Synergy Score, CI50)", "settings": "combination with Compound 1", "protocol": "as §1, §2, §3, §4, §5, §6, §7"}, "KARPAS-299": {"tested_on": "KARPAS-299", "assay": "Combination study, ATPLite 72 h, dose matrix (Synergy Score, CI50)", "settings": "combination with Compound 1"}, "TMD8": {"tested_on": "TMD8", "assay": "Combination study, ATPLite 72 h, dose matrix (Synergy Score, CI50)", "settings": "combination with Compound 1; TMD8; 72 h"}, "WSU-NHL": {"tested_on": "WSU-NHL", "assay": "Combination study, ATPLite 72 h, dose matrix (Synergy Score, CI50)", "settings": "combination with Compound 1, 72 h"}, "HBL-1": {"tested_on": "HBL-1", "assay": "Combination study, ATPLite 72 h, dose matrix (Synergy Score, CI50)", "settings": "combination with Compound 1, 72 h"}, "DOHH-2": {"tested_on": "DOHH-2", "assay": "Combination study, ATPLite 72 h, dose matrix (Synergy Score, CI50)", "settings": "combination with Compound 1, 72 h"}, "[1]": {"assay": "Combination study, ATPLite 72 h, dose matrix (Synergy Score, CI50)", "settings": "combination with Compound 1; OPM-2"}, "OMP-2": {"tested_on": "OMP-2", "assay": "Combination study, ATPLite 72 h, dose matrix (Synergy Score, CI50)", "settings": "combination with Compound 1; OPM-2"}, "OCI-Ly7": {"tested_on": "OCI-Ly7", "assay": "Combination study, ATPLite 72 h, dose matrix (Synergy Score, CI50)", "settings": "combination with Compound 1, 72 h"}, "GRANTA-519": {"tested_on": "GRANTA-519", "assay": "Combination study, ATPLite 72 h, dose matrix (Synergy Score, CI50)", "settings": "combination with Compound 1"}, "NCI-H929": {"tested_on": "NCI-H929", "assay": "Combination study, ATPLite 72 h, dose matrix (Synergy Score, CI50)", "settings": "combination with Compound 1"}, "OCI-Ly3": {"tested_on": "OCI-Ly3", "assay": "Combination study, ATPLite 72 h, dose matrix (Synergy Score, CI50)", "settings": "combination with Compound 1; OCI-Ly3; 72 h"}}, "data": [{"smiles": "CC(C)C[C@H](NC(=O)[C@H](CCc1ccccc1)NC(=O)CN1CCOCC1)C(=O)N[C@@H](Cc1ccccc1)C(=O)N[C@@H](CC(C)C)C(=O)[C@@]1(C)CO1", "note": "[carfilzomib, (S)-4-methyl-N—((S)-1-(((S)-4-methyl-1-((R)-2-methyloxiran-2-yl)-1-oxopentan-2-yl)amino)-1-oxo-3-phenylpropan-2-yl)-2-((S)-2-(2-morpholinoacetamido)-4-phenylbutanamido)pentanamide]", "values": [{"measurement": "CI50 growth inhibition", "setting": "RPMI-8226", "result": "U (U=0.7 to <1)"}, {"measurement": "CI50 inhibition", "setting": "RPMI-8226", "result": "W (W=≥1)"}, {"measurement": "Synergy Score growth inhibition", "setting": "RPMI-8226", "result": "A3 (A3=>3)"}, {"measurement": "Synergy Score inhibition", "setting": "RPMI-8226", "result": "A1 (A1=0.0001 to <1)"}, {"measurement": "CI50 growth inhibition", "setting": "RL", "result": "W (W=≥1)"}, {"measurement": "CI50 inhibition", "setting": "RL", "result": "W (W=≥1)"}, {"measurement": "Synergy Score growth inhibition", "setting": "RL", "result": "A1 (A1=0.0001 to <1)"}, {"measurement": "Synergy Score inhibition", "setting": "RL", "result": "A1 (A1=0.0001 to <1)"}, {"measurement": "CI50 growth inhibition", "setting": "SU-DHL-10-epst", "result": "U (U=0.7 to <1)"}, {"measurement": "CI50 inhibition", "setting": "SU-DHL-10-epst", "result": "U (U=0.7 to <1)"}, {"measurement": "Synergy Score growth inhibition", "setting": "SU-DHL-10-epst", "result": "A3 (A3=>3)"}, {"measurement": "Synergy Score inhibition", "setting": "SU-DHL-10-epst", "result": "A2 (A2=1 to <3)"}, {"measurement": "CI50 growth inhibition", "setting": "HH", "result": "T (T=0.5 to <0.7)"}, {"measurement": "CI50 inhibition", "setting": "HH", "result": "T (T=0.5 to <0.7)"}, {"measurement": "Synergy Score growth inhibition", "setting": "HH", "result": "A3 (A3=>3)"}, {"measurement": "Synergy Score inhibition", "setting": "HH", "result": "A1 (A1=0.0001 to <1)"}, {"measurement": "CI50 growth inhibition", "setting": "Jeko-1", "result": "U (U=0.7 to <1)"}, {"measurement": "CI50 inhibition", "setting": "Jeko-1", "result": "U (U=0.7 to <1)"}, {"measurement": "Synergy Score growth inhibition", "setting": "Jeko-1", "result": "A1 (A1=0.0001 to <1)"}, {"measurement": "Synergy Score inhibition", "setting": "Jeko-1", "result": "A1 (A1=0.0001 to <1)"}, {"measurement": "CI50 growth inhibition", "setting": "U-2932", "result": "U (U=0.7 to <1)"}, {"measurement": "CI50 inhibition", "setting": "U-2932", "result": "U (U=0.7 to <1)"}, {"measurement": "Synergy Score growth inhibition", "setting": "U-2932", "result": "A2 (A2=1 to <3)"}, {"measurement": "Synergy Score inhibition", "setting": "U-2932", "result": "A2 (A2=1 to <3)"}, {"measurement": "CI50 growth inhibition", "setting": "Farage", "result": "U (U=0.7 to <1)"}, {"measurement": "CI50 inhibition", "setting": "Farage", "result": "U (U=0.7 to <1)"}, {"measurement": "Synergy Score growth inhibition", "setting": "Farage", "result": "A3 (A3=>3)"}, {"measurement": "Synergy Score inhibition", "setting": "Farage", "result": "A1 (A1=0.0001 to <1)"}, {"measurement": "CI50 growth inhibition", "setting": "SU-DHL-4-epst", "result": "U (U=0.7 to <1)"}, {"measurement": "CI50 inhibition", "setting": "SU-DHL-4-epst", "result": "U (U=0.7 to <1)"}, {"measurement": "Synergy Score growth inhibition", "setting": "SU-DHL-4-epst", "result": "A3 (A3=>3)"}, {"measurement": "Synergy Score inhibition", "setting": "SU-DHL-4-epst", "result": "A2 (A2=1 to <3)"}, {"measurement": "CI50 growth inhibition", "setting": "KARPAS-422", "result": "T (T=0.5 to <0.7)"}, {"measurement": "CI50 inhibition", "setting": "KARPAS-422", "result": "U (U=0.7 to <1)"}, {"measurement": "Synergy Score growth inhibition", "setting": "KARPAS-422", "result": "A3 (A3=>3)"}, {"measurement": "Synergy Score inhibition", "setting": "KARPAS-422", "result": "A1 (A1=0.0001 to <1)"}, {"measurement": "CI50 growth inhibition", "setting": "Mino", "result": "U (U=0.7 to <1)"}, {"measurement": "CI50 inhibition", "setting": "Mino", "result": "U (U=0.7 to <1)"}, {"measurement": "Synergy Score growth inhibition", "setting": "Mino", "result": "A2 (A2=1 to <3)"}, {"measurement": "Synergy Score inhibition", "setting": "Mino", "result": "A1 (A1=0.0001 to <1)"}, {"measurement": "CI50 growth inhibition", "setting": "KARPAS-299", "result": "W (W=≥1)"}, {"measurement": "CI50 inhibition", "setting": "KARPAS-299", "result": "W (W=≥1)"}, {"measurement": "Synergy Score growth inhibition", "setting": "KARPAS-299", "result": "A1 (A1=0.0001 to <1)"}, {"measurement": "Synergy Score inhibition", "setting": "KARPAS-299", "result": "A1 (A1=0.0001 to <1)"}, {"measurement": "CI50 growth inhibition", "setting": "TMD8", "result": "U (U=0.7 to <1)"}, {"measurement": "CI50 inhibition", "setting": "TMD8", "result": "U (U=0.7 to <1)"}, {"measurement": "Synergy Score growth inhibition", "setting": "TMD8", "result": "A3 (A3=>3)"}, {"measurement": "Synergy Score inhibition", "setting": "TMD8", "result": "A2 (A2=1 to <3)"}, {"measurement": "CI50 growth inhibition", "setting": "WSU-NHL", "result": "U (U=0.7 to <1)"}, {"measurement": "CI50 inhibition", "setting": "WSU-NHL", "result": "U (U=0.7 to <1)"}, {"measurement": "Synergy Score growth inhibition", "setting": "WSU-NHL", "result": "A2 (A2=1 to <3)"}, {"measurement": "Synergy Score inhibition", "setting": "WSU-NHL", "result": "A1 (A1=0.0001 to <1)"}, {"measurement": "CI50 growth inhibition", "setting": "HBL-1", "result": "T (T=0.5 to <0.7)"}, {"measurement": "CI50 inhibition", "setting": "HBL-1", "result": "U (U=0.7 to <1)"}, {"measurement": "Synergy Score growth inhibition", "setting": "HBL-1", "result": "A1 (A1=0.0001 to <1)"}, {"measurement": "Synergy Score inhibition", "setting": "HBL-1", "result": "A1 (A1=0.0001 to <1)"}, {"measurement": "CI50 growth inhibition", "setting": "DOHH-2", "result": "U (U=0.7 to <1)"}, {"measurement": "CI50 inhibition", "setting": "DOHH-2", "result": "U (U=0.7 to <1)"}, {"measurement": "Synergy Score growth inhibition", "setting": "DOHH-2", "result": "A3 (A3=>3)"}, {"measurement": "Synergy Score inhibition", "setting": "DOHH-2", "result": "A1 (A1=0.0001 to <1)"}, {"measurement": "CI50 growth inhibition", "setting": "[1]", "result": "U (U=0.7 to <1)"}, {"measurement": "CI50 inhibition", "setting": "OMP-2", "result": "U (U=0.7 to <1)"}, {"measurement": "Synergy Score growth inhibition", "setting": "OMP-2", "result": "A2 (A2=1 to <3)"}, {"measurement": "Synergy Score inhibition", "setting": "OMP-2", "result": "A1 (A1=0.0001 to <1)"}, {"measurement": "CI50 growth inhibition", "setting": "OCI-Ly7", "result": "W (W=≥1)"}, {"measurement": "CI50 inhibition", "setting": "OCI-Ly7", "result": "W (W=≥1)"}, {"measurement": "Synergy Score growth inhibition", "setting": "OCI-Ly7", "result": "A2 (A2=1 to <3)"}, {"measurement": "Synergy Score inhibition", "setting": "OCI-Ly7", "result": "A1 (A1=0.0001 to <1)"}, {"measurement": "CI50 growth inhibition", "setting": "GRANTA-519", "result": "T (T=0.5 to <0.7)"}, {"measurement": "CI50 inhibition", "setting": "GRANTA-519", "result": "W (W=≥1)"}, {"measurement": "Synergy Score growth inhibition", "setting": "GRANTA-519", "result": "A2 (A2=1 to <3)"}, {"measurement": "Synergy Score inhibition", "setting": "GRANTA-519", "result": "A1 (A1=0.0001 to <1)"}, {"measurement": "CI50 growth inhibition", "setting": "NCI-H929", "result": "U (U=0.7 to <1)"}, {"measurement": "CI50 inhibition", "setting": "NCI-H929", "result": "W (W=≥1)"}, {"measurement": "Synergy Score growth inhibition", "setting": "NCI-H929", "result": "A3 (A3=>3)"}, {"measurement": "Synergy Score inhibition", "setting": "NCI-H929", "result": "A1 (A1=0.0001 to <1)"}, {"measurement": "CI50 growth inhibition", "setting": "OCI-Ly3", "result": "U (U=0.7 to <1)"}, {"measurement": "CI50 inhibition", "setting": "OCI-Ly3", "result": "W (W=≥1)"}, {"measurement": "Synergy Score growth inhibition", "setting": "OCI-Ly3", "result": "A2 (A2=1 to <3)"}, {"measurement": "Synergy Score inhibition", "setting": "OCI-Ly3", "result": "A1 (A1=0.0001 to <1)"}]}]}
